Legend:
HR23B = molecular target: T1, HR23B (Homo sapiens, UniProt P54727); experiment: SPR analysis, immobilized GST-HR23B (GST control subtracted); assay type: binding; conditions: no kinetic analysis
T1 construct: ADRM1 and HR23B human full length proteins were purchased; purchased Abnova (Taipei, Taiwan)
Text: SPR was utilized as an independent confirmation of the kinetic parameters between SQAP and the putative binding proteins. […] The recombinant proteins were then expressed in Escherichia coli and purified to homogeneity. In addition, full length, His-tagged ADRM1 and GST-tagged HR23B (GST-HR23B) were also used. The proteins were first immobilized on a CM5 sensor chip of the SPR biosensor (Biacore 3000). For GST-HR23B analysis, a GST protein was additionally immobilized and used as a control in order to eliminate possible nonspecific binding of SQAP. SQAP samples at different concentrations were then injected over the proteins immobilized on the sensor chip. As a negative control we used sulfoquynovosylpropanediol (SQP), which lacks the fatty acid moiety of SQAP (Fig. 1). […]
The binding kinetics of SCP-2, MFE-2, ADRM1, HR23B and FAK with SQAP and SQP were analyzed on a Biacore 3000 instrument (GE Healthcare, Little Chalfont, UK). […] The buffer of purified peptides was exchanged to HBS-P (150 mM NaCl, 0.005% Surfactant P20, 10 mM HEPES-NaOH pH 7.4) using a PD 10 column (GE Healthcare, Little Chalfont, UK) and the concentrations were quantified using DC protein assay kit (Bio-Rad Laboratories, Hercules, CA, USA). […] Kinetic parameters were determined by analyzing the data using BIAevaluation 4.1 software (GE Healthcare, Little Chalfont, UK).

[1] = system: FAK phosphorylation (Y397, Y925) in A549 cells; experiment: FAK phosphorylation level in A549, Western blotting; assay type: cell-based, human; conditions: A549, fibronectin 10 μg/mL, 1 h treatment
Experimental: A549 cells were incubated in a serum-free medium for 48 h in 60 mm dishes (IWAKI, Tokyo, Japan). Then 10 μM SQAP, SQMG or SQP was added and incubated for 30 min followed by addition of fibronectin 10 μg/mL (Sigma, St. Louis, MI, USA) and incubation for another 30 min. FAK phosphorylation level was analyzed by Western blotting as described in the next section.
Cells were harvested and solubilized in RIPA buffer (20 mM Tris-HCl, pH 7.5, 1% Sodium deoxycholate, 150 mM NaCl, 5 mM EDTA, 1% Triton X-100, 0.1% SDS, 0.1%, 1 mM PMSF, 1 mM vanadate and 1 μg/mL leupeptin). Protein quantification was determined using the DC protein assay kit (Bio-Rad, Hercules, CA, USA). A total of 15 μg of each protein sample were separated by SDS–PAGE gels and blotted onto polyvinylidene difluoride membranes (Merck, Kenilworth, NJ, US). After blocking for 1 h with Blocking-One (Nacalai Tesque, Kyoto, Japan), proteins were detected by incubating the membranes with the primary antibody at 4 °C overnight (anti-Y397 2:2000, anti-Y925 5:2000 and anti-FAK 0.5:2000) followed by incubation with horseradish peroxidase-conjugated secondary antibodies at room temperature for 1 h (anti-mouse 0.5:2000 and anti-rabbit 0.4:2000).

[2] = system: VEGF mRNA expression in A549 cells; experiment: VEGF mRNA expression, quantitative real-time RT-PCR, A549; assay type: cell-based, human; conditions: A549, 6 h, increased concentration of SQAP
Experimental: Figure 5 Effect of SQAP on FAK phosphorylation. The level of FAK phosphorylated at Y397 and Y925 was evaluated by Western blotting. (A) HUVEC cells were serum-depleted for 20 h before treatment with SQAP or vehicle for 30 min followed by treatment with or without VEGF (50 ng/mL) for 30 min. (B) HUVEC cells were cultured as stated in section A and then treated with SQAP, SQMG or SQP. (C) A549 cells were serum-deprived for 48 h before pretreatment with SQAP or vehicle followed by treatment with or without fibronectin (10 μg/mL) for 30 min. (D) A549 cells were cultured as stated in section C and then treated with SQAP, SQMG or SQP. (E–F) HUVEC and A549 cells were treated with SQAP for 6 h before adding an RNA stabilization reagent and prepared for Quantitative real-time RT-PCR.
Total RNA was prepared using an RNeasy Mini Kit (QIAGEN Inc., Hilden, Germany) according to the manufacturer’s instructions and then reverse-transcribed to cDNA with Transcriptor First Strand cDNA Synthesis Kit (Roche Applied Science, Mnnheim, Germany). Measurement of gene expression by quantitative analysis was performed using the LightCycler system (Roche Applied Science). Quantitative real-time RT-PCR analysis of β-actin, TSP-1 and VEGF-A expression were performed using the LightCycler FastStart DNA MasterPLUS SYBR Green I system (Roche Applied Science). […]

T1 sequence (P54727 whole entry): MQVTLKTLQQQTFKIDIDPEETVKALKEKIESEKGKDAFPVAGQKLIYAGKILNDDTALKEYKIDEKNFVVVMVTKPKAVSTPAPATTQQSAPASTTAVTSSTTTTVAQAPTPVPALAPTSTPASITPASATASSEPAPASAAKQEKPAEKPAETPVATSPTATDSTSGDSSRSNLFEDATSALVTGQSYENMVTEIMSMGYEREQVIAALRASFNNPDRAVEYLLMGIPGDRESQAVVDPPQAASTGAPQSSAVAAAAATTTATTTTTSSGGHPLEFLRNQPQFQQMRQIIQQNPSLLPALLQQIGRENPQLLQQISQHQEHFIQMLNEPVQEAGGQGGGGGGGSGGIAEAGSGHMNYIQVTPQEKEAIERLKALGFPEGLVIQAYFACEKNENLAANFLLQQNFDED

CCCCCCCCCCCCCCCCCC(=O)OCCCO[C@H]1O[C@H](CS(=O)(=O)O)[C@@H](O)[C@H](O)[C@H]1O [SQAP, sulfoquynovosylacylpropanediol]
binding to HR23B (SPR response) (HR23B): specific binding response of SQAP in a dose-dependent manner | phosphorylation of FAK at Y397 and Y925 [1]: could inhibit | VEGF production level (mRNA, RT-PCR) [2]: mild production decrease

— PMC4601023, “Novel anticancer agent, SQAP, binds to focal adhesion kinase and modulates its activity” (Scientific Reports, 2015)
